Where a SMILES comes first, the peptide text is derived from it. The star is where a group is joined. Cbz = O=C(OCc1ccccc1)*; CH2F = FC*
What was measured:
[1] = system: SYO-1 and FUJI cell lines; experiment: Treatment with G6PD inhibitor DHEA and DHEA analogs, cell death; type: cell-based; conditions: over a course of 48 hours
Procedure: (§1) For FACS analysis, cell lines were plated at 200,000 cells per well, and incubated in various culture conditions. Media was collected in a FACS tube and samples were washed with PBS. The PBS was transferred into the FACS tube, and 0.5 mL 0.05% Trypsin/EDTA was added to each well. Samples were incubated for 5 minutes at 37° C., and diluted with 0.5 mL complete media before being transferred to the FACS tube. Wells were washed once with PBS, transferred to the FACS tube, and centrifuged at 800 g for 5 minutes at room temperature. The supernatant was aspirated off, and pellets were resuspended in 200 μL PBS (unstained control samples used for gating) or 200 μL of 1 μg/mL propidium iodide dissolved in PBS. Samples were run on a FAScan instrument and fluorescence analyzed on the Blue FL2 channel. Data was further analyzed using FloJo software.
(§2) For the evaluation of glucose deprivation alone and under additional conditions, cell lines were plated in a 6-well format at 200,000 cells per well on day 1. SYO was cultured and plated in Dulbecco's Modified Eagle Medium (DMEM) with 10% FBS and penicillin/streptomycin (include additional glucose concentration), which FUJI was cultured in RPMI medium with 10% FBS and penicillin/streptomycin. […] Samples were then ran and fluorescence analyzed via Blue FL2 channel on a FAScan instrument. […]

SYO-1 xenograft tumor = experiment: SYO-1 xenograft in nude athymic mice, tumor size; type: in vivo; conditions: 1 mg/day for 12 days
Procedure: Sixty nude athymic mice (Nu/J homozygous Cat#002019, The Jackson Lab) were xenografted with 1×10^6 SYO-1 cells that had been resuspended in 1×PBS 30% Matrigel (Corning, Inc., Cat# CB-40234). Mice were anesthetized with 1-2% isofluorane and injected at the left flank. The mice were observed until each tumor size was 100 mm3 by caliper measurement, at which point each individual mouse began daily injections of DHEA 1 mg/30 uL ( ), SWV-49s 3.75 mM, SWV-273.75 mM, SV-119 3.75 mM, SWV-27/SV-119 3.75 mM, or control vehicle Cremiphor. All agents were suspended in Cremiphor. Treatment or placebo injections continued for a total of 12 days. Daily caliper and weight measurements for a total of 30 days were undertaken for each cohort. Mice were sacrificed appropriately by “ ” guidelines and after the conclusion of the in vivo experiment.

[2] = system: SYO-1 and FUJI synovial sarcoma (SS) cell lines; experiment: Pretreatment before glucose deprivation, protection from cell death (PI FACS); type: cell-based
Procedure: During the routine cell culture splitting procedure, cell lines were plated in 6 well plates at 200,000 cells in 2 mL media. Samples were incubated at 37° C. for duration of experiment. Samples were washed with PBS and detached with 0.05% Trypsin/EDTA. Aliquots were diluted 1:2 with Trypan Blue (Sigma) and a viable cell count was obtained using a hemacytometer. For glucose and glutamine deprivation experiments, 200,000 cells were plated in standard media and incubated overnight. Samples were washed 3 times with 1×DPBS (Gibco), and the media was changed to DMEM (control samples) or glucose/glutamine free DMEM (experimental samples). Cell counts were taken as previously described at 2, 4, 6, and 8 hours after the media was changed, and normalized to cell counts taken from growth samples counted at the time the media was changed.
as §1
Cell viability was determined in tissue culture experiments by the trypan blue dye exclusion test. For the evaluation of glucose deprivation, cell lines were plated in a 6-well format at 200,000 cells per well on day 1. SYO was cultured and plated in Dulbecco's Modified Eagle Medium (DMEM) with 10% FBS and penicillin/streptomycin (include additional glucose concentration), which FUJI was cultured in RPMI medium with 10% FBS and penicillin/streptomycin. The following day, glucose-containing media was removed, and each well was washed with 1-2 mL of phosphate buffered saline (PBS) three times to ensure elimination of residual glucose. Glucose-free media was then replaced in each well for the duration of the experiment. At the end point, the glucose-free media was removed and each well washed with 1 mL of PBS. One-half milliliter of trypsin 0.05% was then applied to each well, later aggressively resuspended in 0.5 mL of media for a total cell volume of 1 mL. Twenty microliters of each well was then counted via hemocytometer, excluding those non-viable cells that were positive for trypan blue uptake and/or fragmented.
For the evaluation of glucose deprivation alone and under additional conditions, cell lines were plated in a 6-well format at 200,000 cells per well on day 1. SYO was cultured and plated in Dulbecco's Modified Eagle Medium (DMEM) with 10% FBS and penicillin/streptomycin (include additional glucose concentration), which FUJI was cultured in RPMI medium with 10% FBS and penicillin/streptomycin. The following day, glucose-containing media was removed, and each well was washed with 1-2 mL of phosphate buffered saline (PBS) three times to ensure elimination of residual glucose. Glucose-free media was then replaced in each well for the duration of the experiment. […]

[3] = system: SYO-1 and FUJI cell lines; experiment: Erastin / sigma-2 erastin treatment, cell death; type: cell-based; conditions: in as little as 8 hours, compared to control lines SKLMS-1 and MG63
Procedure: as §1, §2

[4] = Phase I open-label study of olaratumab and doxorubicin in patients with advanced soft tissue sarcoma (PK, DDI, safety)
Procedure: Patients with metastatic or locally advanced STS not amenable to treatment with surgery or curative radiotherapy, aged years with an ECOG PS of 0-2 and documented LVE fraction ≥50% were included. The primary objective was to assess the effect of Olara on the PK of Dox. Secondary objectives were to further characterize the PK and safety profiles of Olara alone and in combination with Dox. Drug-drug interaction (DDI) was assessed in 21-day cycles, where patients received each drug alone (Cycle 1) then in combination (Cycle 2). In Cycles 3-8, patients with clinical benefit could continue treatment with Olara+Dox. 15-mg/kg Olara was given IV over ˜60 min; 75-mg/m^2 Dox was given IV over ˜15 min.

[5] = pretreatment one hour prior to glucose-free media change

## C[C@]12CC[C@H](O)CC1=CC[C@@H]1[C@@H]2CC[C@]2(C)C(=O)CC[C@@H]12 [DHEA, dehydroepiandrosterone]
[1]
  cell death: varying but significant cell death
SYO-1 xenograft tumor
  tumor size: dramatic decrease in tumor size
SYO-1 xenograft tumor; murine model
  tolerability of dose and regimen: well-tolerated

## CCOC(=O)c1ccc(NC2CCCCC2)c(N)c1 [ferrostatin]
[2]; [5]
  protection from cell death under glucose deprivation: significant protection from glucose-deprivation mediated cell death

## CN1C(=O)C(Cc2c[nH]c3ccccc23)NC1=S (stereo not shown) [necrostatin]
[2]; [5]
  protection from cell death under glucose deprivation: did not result in protection from cell death

## CCOc1ccccc1-n1c(C(C)N2CCN(C(=O)COc3ccc(Cl)cc3)CC2)nc2ccccc2c1=O (stereo not shown) [erastin]
[3]
  cell death: approximately 40%

## Olaratumab
[4]; IV infusion, both agents given in combination
  effect on systemic exposure to Dox: did not have a clinically relevant effect
[4]; human, in vivo
  CL: 0.0218 L/h
  mean CL: 0.0259 L/h
  mean Cmax: 393 µg/mL
  median tmax post start of infusion: ~2.8 h
  time of Cmax post start of infusion: ~2 h
[4]; human, in vivo, iv, 15 mg/kg
  mean Cmax: 293 µg/mL

## Cc1c(O)c(=O)ccn1C [deferiprone]
[2]; pretreated one hour prior to glucose deprivation, acute time course of 2-6 hours
  protection from cell death under glucose deprivation: significant protection from cell death

## CC(NC(=O)C(NC(=O)OCc1ccccc1)C(C)C)C(=O)NC(CC(=O)O)C(=O)CF (stereo not drawn) [ZVAD] (Cbz-Val-Ala-Asp-CH2F; configuration not given here)
[2]; [5]
  protection from cell death under glucose deprivation: did not result in protection from cell death

## CC(=O)N[C@@H](CS)C(=O)O [NAC]
[2]; 10 mM, pretreated one hour prior to glucose deprivation, 2 and 6 hours
  protection from cell death under glucose deprivation: protection from cell death was noted

— patent US11175296B2, “Methods of diagnosing and treating cancer comprising ME1” (Washington University, priority 2016, dated 2021)
